Data as given in US11884676B2, “Substituted pyrimido[1,2-b]pyridazines as positive allosteric modulators of the muscarinic acetylcholine receptor M4” (Vanderbilt University, priority 2020, dated 2024).

Target: T1, Human M4 (Homo sapiens, UniProt P08173)
T1 construct: expressed in transfected cells
T1 sequence (P08173 1-479): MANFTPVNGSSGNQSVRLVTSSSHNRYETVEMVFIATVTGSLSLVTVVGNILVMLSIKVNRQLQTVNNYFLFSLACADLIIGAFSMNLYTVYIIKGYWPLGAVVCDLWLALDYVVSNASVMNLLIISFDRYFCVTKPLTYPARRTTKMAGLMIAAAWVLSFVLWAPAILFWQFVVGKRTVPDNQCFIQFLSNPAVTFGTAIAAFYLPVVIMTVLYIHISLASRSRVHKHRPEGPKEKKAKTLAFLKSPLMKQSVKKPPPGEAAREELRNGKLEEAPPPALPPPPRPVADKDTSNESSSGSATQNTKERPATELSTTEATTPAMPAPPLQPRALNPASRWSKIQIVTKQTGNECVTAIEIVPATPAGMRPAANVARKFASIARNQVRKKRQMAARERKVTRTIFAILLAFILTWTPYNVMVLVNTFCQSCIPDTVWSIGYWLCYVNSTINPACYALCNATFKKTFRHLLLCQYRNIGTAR
Assay: mAChR M4 cell-based functional assay (calcium flux, PAM mode)
Settings: hM4-Gqi5 CHO-K1 cells; for Emax at 30 µM: CHO-K1, % ACh maximum at 30 μM; for EC50: concentration-dependent increase in the EC20 acetylcholine response
Outline: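 CHO-K1 cells stably co-expressing human M4 and chimeric Gqi5, Fluo-4 loaded; compound added first (11-point, 1:3 CRC), then EC20 acetylcholine at 144 s and EC80 at 230 s. PAM activity read on FDSS as concentration-dependent increase of EC20 ACh calcium response; EC50 and Emax from four-parameter logistic fit.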

| SMILES | Emax at 30 µM [%] | EC50 [nM] |
| --- | --- | --- |
| [2H]C1([2H])Oc2ccc(O[C@@H]3CCN(c4nn5c(=O)cc(C)nc5cc4C)C[C@H]3F)cc2OC1([2H])[2H] [Compound 51, 7-((3R,4R)-4-((2,3-dihydrobenzo[b][1,4]dioxin-6-yl-2,2,3,3-d4)oxy)-3-fluoropiperidin-1-yl)-2,8-dimethyl-4H-pyrimido[1,2-b]pyridazin-4-one] | 94 | 16 |
| CCCc1ccc(OC2CCN(c3nn4c(=O)ccnc4cc3C)CC2)cc1 [Compound 91, 8-methyl-7-(4-(4-propylphenoxy)piperidin-1-yl)-4H-pyrimido[1,2-b]pyridazin-4-one] | 70 | 1070 |
| [2H]C1([2H])Oc2ccc(OC3CCN(c4nn5c(=O)c(Cl)cnc5cc4C)CC3)cc2OC1([2H])[2H] [Compound 23, 3-chloro-7-(4-((2,3-dihydrobenzo[b][1,4]dioxin-6-yl-2,2,3,3-d4)oxy)piperidin-1-yl)-8-methyl-4H-pyrimido[1,2-b]pyridazin-4-one] | 91 | 44 |
| [2H]C1([2H])Oc2ccc(OC3CCN(c4nn5c(=O)cc(C)nc5c(C)c4C)CC3)cc2OC1([2H])[2H] [Compound 5, 7-(4-((2,3-Dihydrobenzo[b][1,4]dioxin-6-yl-2,2,3,3-d4)oxy)piperidin-1-yl)-2,8,9-trimethyl-4H-pyrimido[1,2-b]pyridazin-4-one] | 81 | 36 |
| [2H]C1([2H])Oc2ccc(O[C@@H]3CCN(c4nn5c(=O)cc(COC)nc5cc4C)C[C@H]3F)cc2OC1([2H])[2H] [Compound 125, 7-((3R,4R)-4-((2,3-dihydrobenzo[b][1,4]dioxin-6-yl-2,2,3,3-d4)oxy)-3-fluoropiperidin-1-yl)-2-(methoxymethyl)-8-methyl-4H-pyrimido[1,2-b]pyridazin-4-one] | 108 | 87 |
| [2H]C1(Oc2ccc3c(c2)OC([2H])([2H])C([2H])([2H])O3)CCN(c2nn3c(=O)ccnc3c(C)c2COC)CC1 [Compound 102, 7-(4-((2,3-dihydrobenzo[b][1,4]dioxin-6-yl-2,2,3,3-d4)oxy)piperidin-1-yl-4-d)-8-(methoxymethyl)-9-methyl-4H-pyrimido[1,2-b]pyridazin-4-one] | 94 | 170 |
| [2H]C1(Oc2ccc3c(c2)OC([2H])([2H])C([2H])([2H])O3)CCN(c2nn3c(=O)c(F)c(C)nc3cc2C)CC1 [Compound 46, 7-(4-((2,3-dihydrobenzo[b][1,4]dioxin-6-yl-2,2,3,3-d4)oxy)piperidin-1-yl-4-d)-3-fluoro-2,8-dimethyl-4H-pyrimido[1,2-b]pyridazin-4-one] | 81 | 22 |
| Cc1c(N2CCC(Oc3ccc(C(F)(F)F)cc3)CC2)nn2c(=O)cc(C(F)F)nc2c1C [Compound 81, 2-(difluoromethyl)-8,9-dimethyl-7-(4-(4-(trifluoromethyl)phenoxy)piperidin-1-yl)-4H-pyrimido[1,2-b]pyridazin-4-one] | 73 | 2300 |
| [2H]C1([2H])Oc2ccc(OC3CCN(c4nn5c(=O)cc(C(C)C)nc5c(C)c4C)CC3)cc2OC1([2H])[2H] [Compound 99, 7-(4-((2,3-dihydrobenzo[b][1,4]dioxin-6-yl-2,2,3,3-d4)oxy)piperidin-1-yl)-2-isopropyl-8,9-dimethyl-4H-pyrimido[1,2-b]pyridazin-4-one] | 90 | 131 |
| [2H]C1([2H])Oc2ccc(O[C@H]3CCN(c4nn5c(=O)ccnc5c(C)c4C)C[C@@H]3F)cc2OC1([2H])[2H] [Compound 117, 7-((3S,4S)-4-((2,3-dihydrobenzo[b][1,4]dioxin-6-yl-2,2,3,3-d4)oxy)-3-fluoropiperidin-1-yl)-8,9-dimethyl-4H-pyrimido[1,2-b]pyridazin-4-one] | 93 | 326 |
| Cc1ccc(OC2CCN(c3nn4c(=O)cc(C)nc4cc3C)CC2)cn1 [Compound 52, 2,8-dimethyl-7-(4-((6-methylpyridin-3-yl)oxy)piperidin-1-yl)-4H-pyrimido[1,2-b]pyridazin-4-one] | 84 | 168 |
| Cc1c(N2CCC(Oc3ccc4c(c3)OCCO4)CC2)nn2c(=O)ccnc2c1C [Compound 71, 7-(4-((2,3-dihydrobenzo[b][1,4]dioxin-6-yl)oxy)piperidin-1-yl)-8,9-dimethyl-4H-pyrimido[1,2-b]pyridazin-4-one] | 95 | 21 |
| Cc1c(N2CCC(Oc3ccc4c(c3)OCCO4)CC2)nn2c(=O)ccnc2c1C1CC1 [Compound 20, 9-Cyclopropyl-7-(4-((2,3-dihydrobenzo[b][1,4]dioxin-6-yl-2,2,3,3-d4)oxy)piperidin-1-yl)-8-methyl-4H-pyrimido[1,2-b]pyridazin-4-one] | 81 | 172 |
| [2H]C1([2H])Oc2ccc(OC3CCN(c4nn5c(=O)cc(COC)nc5cc4C)CC3)cc2OC1([2H])[2H] [Compound 14, 7-(4-((2,3-Dihydrobenzo[b][1,4]dioxin-6-yl-2,2,3,3-d4)oxy)piperidin-1-yl)-2-(methoxymethyl)-8-methyl-4H-pyrimido[1,2-b]pyridazin-4-one] | 101 | 22 |
| [2H]C1([2H])Oc2ccc(O[C@H]3CCN(c4nn5c(=O)cc(COC)nc5c(C)c4C)[C@H](C)C3)cc2OC1([2H])[2H] [Compound 133, 7-((2R,4S)-4-((2,3-dihydrobenzo[b][1,4]dioxin-6-yl-2,2,3,3-d4)oxy)-2-methylpiperidin-1-yl)-2-(methoxymethyl)-8,9-dimethyl-4H-pyrimido[1,2-b]pyridazin-4-one] | 105 | 96 |
| [2H]C1([2H])Oc2ccc(O[C@H]3CCN(c4nn5c(=O)cc(COC)nc5c(C)c4C)C[C@H]3F)cc2OC1([2H])[2H] [Compound 122, 7-((3R,4S)-4-((2,3-dihydrobenzo[b][1,4]dioxin-6-yl-2,2,3,3-d4)oxy)-3-fluoropiperidin-1-yl)-2-(methoxymethyl)-8,9-dimethyl-4H-pyrimido[1,2-b]pyridazin-4-one] | 111 | 94 |
| CCc1ccc(OC2CCN(c3nn4c(=O)ccnc4cc3C)CC2)cc1 [Compound 89, 7-(4-(4-ethylphenoxy)piperidin-1-yl)-8-methyl-4H-pyrimido[1,2-b]pyridazin-4-one] | 76 | 503 |
| [2H]C1(Oc2ccc3c(c2)OC([2H])([2H])C([2H])([2H])O3)CCN(c2nn3c(=O)cc(C(F)F)nc3cc2C)CC1 [Compound 65, 2-(difluoromethyl)-7-(4-((2,3-dihydrobenzo[b][1,4]dioxin-6-yl-2,2,3,3-d4)oxy)piperidin-1-yl-4-d)-8-methyl-4H-pyrimido[1,2-b]pyridazin-4-one] | 108 | 20 |
| [2H]C1([2H])Oc2ccc(O[C@@H]3CCN(c4nn5c(=O)ccnc5c(C)c4C)C[C@H]3F)cc2OC1([2H])[2H] [Compound 128, 7-((3R,4R)-4-((2,3-dihydrobenzo[b][1,4]dioxin-6-yl-2,2,3,3-d4)oxy)-3-fluoropiperidin-1-yl)-8,9-dimethyl-4H-pyrimido[1,2-b]pyridazin-4-one] | 125 | 53 |
| [2H]C1([2H])Oc2ccc(OC3CCN(c4nn5c(=O)c(F)c(C)nc5c(C)c4C)CC3)cc2OC1([2H])[2H] [Compound 16, 7-(4-((2,3-Dihydrobenzo[b][1,4]dioxin-6-yl-2,2,3,3-d4)oxy)piperidin-1-yl)-3-fluoro-2,8,9-trimethyl-4H-pyrimido[1,2-b]pyridazin-4-one] | 117 | 92 |
| [2H]C1(Oc2ccc3c(c2)OC([2H])([2H])C([2H])([2H])O3)CCN(c2nn3c(=O)cc(C)nc3c(C)c2C)CC1 [Compound 94, 7-(4-((2,3-dihydrobenzo[b][1,4]dioxin-6-yl-2,2,3,3-d4)oxy)piperidin-1-yl-4-d)-2,8,9-trimethyl-4H-pyrimido[1,2-b]pyridazin-4-one] | 84 | 30 |
| Cc1cc(=O)n2nc(N3CCC(Oc4ccc5c(c4)C(=O)N(C)CC5)CC3)c(C)cc2n1 [Compound 73, 2,8-dimethyl-7-(4-((2-methyl-1-oxo-1,2,3,4-tetrahydroisoquinolin-7-yl)oxy)piperidin-1-yl)-4H-pyrimido[1,2-b]pyridazin-4-one] | 85 | 2630 |
| [2H]C1(Oc2ccc3c(c2)OCCCO3)CCN(c2nn3c(=O)cc(C)nc3cc2C)CC1 [Compound 59, 7-(4-((3,4-dihydro-2H-benzo[b][1,4]dioxepin-7-yl)oxy)piperidin-1-yl-4-d)-2,8-dimethyl-4H-pyrimido[1,2-b]pyridazin-4-one] | 85 | 59 |
| [2H]C1(Oc2ccc3c(c2)OC([2H])([2H])C([2H])([2H])O3)CCN(c2nn3c(=O)ccnc3c(C)c2C2CC2)CC1 [Compound 104, 8-cyclopropyl-7-(4-((2,3-dihydrobenzo[b][1,4]dioxin-6-yl-2,2,3,3-d4)oxy)piperidin-1-yl-4-d)-9-methyl-4H-pyrimido[1,2-b]pyridazin-4-one] | 87 | 1410 |
